Assay results taken from patent publication US7858617B2, “2-oxy-benzoxazinone derivatives for the treatment of obesity” (Norgine B.V., priority 1999, dated 2010).

What was measured:
Format in all cases: biochemical
human pancreatic lipase = target: T1, human pancreatic lipase (Homo sapiens, UniProt P16233); assay: Lipase activity, quinine diimine dye calorimetric assay (Sigma Lipase-PS); conditions: at 500 nM; read-out: inhibited % of the pancreatic lipase activity
T1 sequence (P16233 17-465): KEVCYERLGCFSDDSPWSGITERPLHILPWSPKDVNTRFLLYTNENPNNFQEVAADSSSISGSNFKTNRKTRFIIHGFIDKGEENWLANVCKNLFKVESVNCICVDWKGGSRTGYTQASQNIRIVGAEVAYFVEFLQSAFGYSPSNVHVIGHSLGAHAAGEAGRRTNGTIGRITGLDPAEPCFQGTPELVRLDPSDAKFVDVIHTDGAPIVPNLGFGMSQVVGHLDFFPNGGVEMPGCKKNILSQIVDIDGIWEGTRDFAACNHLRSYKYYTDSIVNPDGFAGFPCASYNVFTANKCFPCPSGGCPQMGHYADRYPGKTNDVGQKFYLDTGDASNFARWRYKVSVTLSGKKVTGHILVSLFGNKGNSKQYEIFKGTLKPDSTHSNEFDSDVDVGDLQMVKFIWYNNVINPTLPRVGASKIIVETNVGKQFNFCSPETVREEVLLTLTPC
Description: Measurement of Lipase Activity Using a Quinine Diimine Dye Calorimetric Assay
The inhibitory activity of the selected compounds to pancreatic lipase was measured in the following assay available from Sigma Ltd (Lipase-PS™, catalog number 805-A):
The glycerol released from the action of pancreatic and monoglyceride lipase was oxidised to release H2O2. The peroxidase reaction step then produces a quinine dye which is pink in colour and absorbs light at a wavelength of 550 nm.
Individual test compounds were dissolved in DMSO (dimethyl sulphoxide) at 10 mM. DMSO was used to avoid any problems with compounds being water-insoluble. For individual compounds, the IC50 (concentration at which lipase activity is inhibited to one half of the maximum) was calculated by measuring the inhibitory activity from log-dose response curves using a range of inhibitor concentrations.
A range of compounds was assayed in the quinine diimine dye calorimetric assay which provides a rapid method to measure lipase inhibitory activity.

Porcine trypsin = target: T2, Porcine trypsin (Sus scrofa, UniProt P00761); assay: Measurement of trypsin activity; conditions: at 500 nM; read-out: inhibited % of the trypsin activity
T2 construct: purchased Boehringer
T2 sequence (P00761 9-231): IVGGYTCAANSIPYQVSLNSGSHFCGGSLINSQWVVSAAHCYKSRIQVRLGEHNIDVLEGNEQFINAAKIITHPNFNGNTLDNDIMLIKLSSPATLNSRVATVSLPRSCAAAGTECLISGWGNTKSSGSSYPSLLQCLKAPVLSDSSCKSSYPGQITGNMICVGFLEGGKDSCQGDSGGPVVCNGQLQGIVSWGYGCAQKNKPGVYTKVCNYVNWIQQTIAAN
Description: Measurement of Trypsin Activity
Porcine trypsin (Boehringer) was dissolved at a concentration of 1 mg/ml in 100 mM MOPS (3-[N-Morpholino]propanesulphonic acid) pH 7.3 containing 2 mM CaCl2. Prior to use, the enzyme was diluted 500 times to give a final concentration of 2 μg/ml.
Selected compounds were routinely stored as 5 mM stock solutions dissolved in DMSO (Dimethylsulphoxide) at −20° C. For the assay, aliquots were defrosted and a series of dilutions (×100, ×200, ×1,000, ×2,000, ×10,000, ×20,000 and ×100,000) made in 100 mM MOPS pH 7.3 containing 2 mM CaCl2. The substrate Bz-Phe-Val-Arg-pNA (Benzoyl-phenylalanyl-valyl-arginine-p-nitroanilide) was dissolved in DMSO to give a 10 mM solution. Immediately prior to use, the substrate was diluted to 0.3 mM (30 μl/ml) in 100 mM MOPS containing […].
(§1) The assay was set up in triplicate in a 96 well ELISA plate. 10 μl 2 μg/ml trypsin, 26 μl diluted inhibitor and 190 μl substrate were added sequentially. The plates were then incubated at 37° C. in a BioRad Benchmark Microplate Reader. The rate of release of p-nitroaniline was measured at […] over 10 minutes relative to that of the enzyme without inhibitor.

Bovine Chymotrypsin = target: T3, Bovine Chymotrypsin (Bos taurus, UniProt P00766); assay: Measurement of chymotrypsin activity; conditions: at 500 nM; read-out: inhibited % of the chymotrypsin activity
T3 construct: purchased Sigma C4129
Description: Measurement of Chymotrypsin Activity
Bovine Chymotrypsin (Sigma Type 11 Cat. No. C4129) was dissolved at a concentration of 1 mg/ml in 100 mM Tris pH 7.8. Prior to use, the enzyme was diluted 20 fold immediately before use, with the same buffer.
Selected compounds were routinely stored as 5 mM stock solutions dissolved in DMSO (Dimethylsulphoxide) at −20° C. For the assay, aliquots were defrosted and a series of dilutions (×20, ×100, ×200, ×1,000, ×2,000, ×10,000, ×20,000 and ×100,000) made in 100 mM Tris pH 7.8. The substrate H-Ala-Ala-Phe-p-nitroanilide (H-alanyl-alanyl-phenylalanine-p-nitroanilide) (Bachem Cat. No. L-1095) was dissolved in DMSO to give a 10 mM stock and stored at 4° C. until use. Immediately prior to use, the substrate was diluted to 0.3 mM final concentration (30 μl/ml) just before use.
as §1, with “50” for “2”, “chymotrypsin, 50” for “trypsin, 26”

Structure (SMILES): CCCCCCCCCCCCCCCCOc1nc2ccc(C)cc2c(=O)o1 [Compound 18, 2-Hexadecyloxy-6-methyl-4H-3,1-benzoxazin-4-one]
- inhibition at 0.5 µM (human pancreatic lipase): 98.7%
- inhibition at 0.5 µM (Porcine trypsin): 4%
- inhibition at 0.5 µM (Bovine Chymotrypsin): 12.5%
